In patent US20230117328A1, “METHODS TO TREAT CANCER USING (R)-N-(3-FLUORO-4-((3-((1-HYDROXYPROPAN-2-YL)AMINO)-1H-PYRAZOLO[3,4-B]PYRIDIN-4-YL)OXY)PHENYL)-3-(4-FLUOROPHENYL)-1-ISOPROPYL-2,4-DIOXO-1,2,3,4-TETRAHYDROPYRIMIDINE-5-CARBOXAMIDE” (Array BioPharma Inc., priority 2020, published 2023):

Tested on: MC-38 colon adenocarcinoma tumors
Test: Antitumor efficacy in syngeneic MC-38 colon adenocarcinoma tumor-bearing mice
Assay type: in vivo, C57BL/6 mice
Conditions: MC-38 tumor-bearing mice; for Median Survival (days): not reached = more than 50% of animals alive at end of study (Day 66), 50 mg/kg
Method: Female C57BL/6 bearing syngeneic MC-38 colon adenocarcinoma tumors (n=8/group, implanted on Day 0) were administered test articles Compound 1 or anti-PD-1, as monotherapy or in combination, starting on Day 10. As monotherapy, anti-PD-1 was administered twice weekly (BIW) for 2 consecutive weeks by intraperitoneal (IP) injection at 200 μg/mouse (Days 10, 13, 17, and 20). As monotherapy, Compound 1 was administered twice daily (BID) at 50 mg/kg by oral gavage (PO) for 28 consecutive days (Days 10-37). As combination therapy with anti-PD-1 (administered at the dose and schedule indicated above), Compound 1 was administered BID at 50 mg/kg PO for 1) 7 consecutive days (Days 10-16); 2) 14 consecutive days (Days 10-23); 3) 21 consecutive days (Days 10-30); 4) 28 consecutive days (Days 10-37); or, 5) 7 consecutive days on the first and third week of dosing (Days 10-16 and Days 24-30). This set of cohorts was used to determine both the tolerability and efficacy of Compound 1 treatment across dosing schedules, as well as ocular toxicity upon recovery on Day 66.
For initial tumor outgrowth, a suspension of 1×10^6 MC-38 cells in a volume of 100 μL PBS was implanted subcutaneously on the right flank of the animal near the axillary region. Animals were then randomly assigned to treatment groups. Treatment was initiated on day 10 after MC-38 tumor cell inoculation to allow for a sufficient treatment window (Table 1).
Anti-PD-1 was administered twice weekly (BIW) for 2 consecutive weeks by intraperitoneal (IP) injection at 200 μg/mouse. Compound 1 was administered twice daily (BID) for 28 consecutive days by oral gavage (PO) at 50 mg/kg in 10 mL/kg dose volume (with or without anti-PD-1 administered on the above indicated dose and schedule). Alternatively, Compound 1 was administered BID for 7, 14 or 21 consecutive days, or on Days 10-16 and Days 24-30 in combination with anti-PD-1. Concomitantly, a set of satellite cohorts comprising tumor-naïve mice was treated with the same schedules and doses as indicated above.
Animals were monitored for tumor growth and body weight 2-3 times per week based on outgrowth kinetics. Tumor diameter was measured with digital calipers, and the tumor volume in mm^3 was calculated by the formula: Volume=((width)^2×length)/2. Animals were removed from study if found moribund or if tumor volume exceeded 1500 mm^3. […] Food, water, temperature and humidity were according to Pharmacology Testing Facility performance standards (SOPs) which are in accordance with the 1996 Guide for the Care and Use of Laboratory Animals (NRC) and AAALAC-International.
The murine MC-38 colon adenocarcinoma cell line was developed in C57BL/6 mice upon subcutaneous injection of dimethylhydrazine (Corbett, T. H., Griswold, D. P., et al. (1975), Cancer Research 35, 2434-2439). Extensive immunogenomic, transcriptomic, and therapeutic background are available on this cell line (Yadav, M., Jhunjhunwala, S., et al. (2014) Nature, 515, 572-576; and Efremova, M., Rieder, D., et al. (2018) Nat. Commun. 9, 32). The MC-38 cell line is reported to harbor driver mutations in TP53, PTEN, SMAD2, SMAD4, ACVR2A, TGFB2, BRAF, AXIN, SOX9, and ARID1A. Furthermore, mutations in the MMR gene MSH3 indicate that this cell line is a model of human MSI/hypermutated colorectal cancer. Whole exome sequencing has also identified 1290 transcript coding variations (compared to the reference C57BL/6 genome), among which 170 were predicted to be MHC Class I-presented neo-epitopes.
MC-38 (National Cancer Institute-Frederick Tumor Repository, Frederick, Md.) cells were grown in a humidified atmosphere of 5% CO2 using DMEM growth media (Gibco Life Technologies, 11965-092) supplemented with 10% fetal bovine serum (HyClone SH30071.03, Logan, Utah) and 100 U/mL penicillin, 100 μg/mL streptomycin (Gibco Life Technologies, 15140-122). Cells were confirmed murine virus and mycoplasma negative (IDEXX Laboratories Inc, Columbia, Mo.) prior to implantation. […]

[1] = Compound 1 50 mg/kg PO BID Days 10-16 (7 days) in combination with anti-PD-1 200 μg IP BIW (Days 10, 13, 17, 20)
[2] = Compound 1 50 mg/kg PO BID Days 10-16 and Days 24-30 (interval schedule) in combination with anti-PD-1 200 μg IP BIW (Days 10, 13, 17, 20)
[3] = Compound 1 50 mg/kg PO BID Days 10-23 (14 days) in combination with anti-PD-1 200 μg IP BIW (Days 10, 13, 17, 20)
[4] = Compound 1 50 mg/kg PO BID Days 10-30 (21 days) in combination with anti-PD-1 200 μg IP BIW (Days 10, 13, 17, 20)
[5] = Compound 1 50 mg/kg PO BID Days 10-37 (28 days) in combination with anti-PD-1 200 μg IP BIW (Days 10, 13, 17, 20)
[6] = Compound 1 monotherapy, 50 mg/kg PO BID Days 10-37 (28 days)

In the case of `CC(C)n1cc(C(=O)Nc2ccc(Oc3ccnc4[nH]nc(N[C@H](C)CO)c34)c(F)c2)c(=O)n(-c2ccc(F)cc2)c1=O` [Compound 1, (R)—N-(3-fluoro-4-((3-((1-hydroxypropan-2-yl)amino)-1H-pyrazolo[3,4-b]pyridin-4-yl)oxy)phenyl)-3-(4-fluorophenyl)-1-isopropyl-2,4-dioxo-1,2,3,4-tetrahydropyrimidine-5-carboxamide], the “% TGI on Day 32” value [1] is reported as 96.6%, the “Cures on Day 66” value [1] is reported as 6/8 and the “Median Survival (days)” value (Compound 1 50 mg/kg PO BID Days 10-16 (7 days) in combination with anti-PD-1 200 μg IP BIW) is reported as “not reached”. The “% TGI on Day 32” value [2] was 96.2%, the “Cures on Day 66” value [2] was 4/8 and the “Median Survival (days)” value (Compound 1 50 mg/kg PO BID Days 10-16 and Days 24-30 (interval schedule) in combination with anti-PD-1 200 μg IP BIW) was “not reached”. The “% TGI on Day 32” value [3] was 97.1%, the “Cures on Day 66” value [3] was 3/8 and the “Median Survival” value [3] was 66 days. The “% TGI on Day 32” value [4] was 98.5%, the “Cures on Day 66” value [4] was 3/8 and the “Median Survival (days)” value (Compound 1 50 mg/kg PO BID Days 10-30 (21 days) in combination with anti-PD-1 200 μg IP BIW) was “not reached”. For the same compound, the “% TGI on Day 32” value [5] was 99.3%, the “Cures on Day 66” value [5] was 5/7 and the “Median Survival (days)” value (Compound 1 50 mg/kg PO BID Days 10-37 (28 days) in combination with anti-PD-1 200 μg IP BIW) was “not reached”. The “% TGI on Day 32” value [6] was 95.6%, the “Cures on Day 66” value [6] was 0/6 and the “Median Survival” value [6] was 66 days.
